Assay results reported in patent publication US20220323445A1, “REDUCING IMMUNOGENICITY TO PEGLOTICASE” (Horizon Therapeutics Ireland DAC, priority 2020, published 2022).
Read-outs that look alike come from different tables or passages of the source.

Tests used:
[1] = cited from earlier work
[2] = tested on: patients with uncontrolled gout
Source text: As used herein, an “adverse event” or “AE” refers to any untoward medical occurrence associated with the use of a drug in humans, whether it is considered drug-related or not. An AE or suspected adverse reaction is considered a “serious adverse event” or “SAE” if, in the view of either the Investigator or Sponsor, it results in any of the following outcomes: (1) Death, (2) Life-threatening: an AE is considered “life-threatening” if, in the view of either the Investigator or Sponsor, its occurrence places the subject or subject at immediate risk of death. […] (5) A congenital anomaly/birth defect; (6) Important medical events that may not result in death, be life-threatening, or require hospitalization may be considered serious when, based upon appropriate medical judgment, they may jeopardize the patient or subject and may require medical or surgical intervention to prevent one of the outcomes listed in this definition.
Safety Variables: Safety was assessed via AE and concomitant medication use monitoring, physical examinations, vital signs, clinical safety laboratory evaluations (hematology, chemistry, urine uric acid:creatinine ratio), pregnancy testing (if applicable), electrocardiograms (ECGs), and AEs of special interest (i.e., IRs, anaphylaxis, gout flares, and cardiovascular events).
AEs of special interest may include IRs, anaphylaxis, gout flares, and cardiovascular events.
Severity in accordance with the disclosure is reported according to the following: Grade 1 (Mild)—No interference with daily activity. Grade 2 (Moderate)—Some interference with daily activity but medical intervention not required (e.g., doctor visit and/or medication); over the counter medicine permitted. Grade 3 (Severe)—Prevents daily activity and requires medical intervention (e.g., doctor visit and/or medication). Grade 4 (Potentially Life-threatening)—Emergency room visit or hospitalization.
An AE was defined as any untoward event, whether or not it was considered related to the use of pegloticase or MTX. Any worsening (i.e., any clinically significant adverse change in frequency or intensity) of a preexisting condition which was temporally associated with the use of pegloticase or MTX was also considered an AE. Abnormal laboratory values or test results constitute AEs only if they induce clinical signs or symptoms or require therapy, and were recorded on the AE CRF under the signs, symptoms or were associated with diagnoses associated with them. Screening conditions were not considered AE; however, worsening of a preexisting condition may be considered an AE. AEs were collected starting at the baseline, Visit 1.
TEAEs during the Pegloticase+IMM Period were defined as events that occur after the start of the first pegloticase infusion through 30 days after the last dose of pegloticase and/or MTX or placebo for MTX (whichever was later). TEAEs that occur during the MTX Tolerability Assessment Period prior to randomization (Weeks −6 to −4) was summarized separately for the MTX population. […] AEs that occur more than 30 days after the last dose of pegloticase and/or MTX or placebo for MTX through the 6-month follow-up visit was also summarized.

[3] = tested on: patients with chronic gout; details: cited from earlier work
plasma urate = details: doses of 4 to 12 mg; within 24 to 72 hours; from 11.1±0.6 mg/dL; cited from earlier work
[4] = Stability of pegloticase diluted in infusion bags; assay type: physicochemical; details: at 2° C. to 8° C. and at room temperature (20° C. to 25° C.); 0.45% or 0.9% Sodium Chloride
Procedure: Preparation—Vials were visually inspected for particulate matter and discoloration before administration, whenever solution and container permit. Vials were not used if either was present. Using appropriate aseptic technique, 1 mL of pegloticase was withdrawn from the vial into a sterile syringe. Any unused portion of product remaining in the vial was discarded. Syringe contents were injected into a single 250 mL bag of 0.45% or 0.9% Sodium Chloride Injection, United States Pharmacopeia (USP) for IV infusion and was not mixed or diluted with other drugs. The infusion bag containing the dilute pegloticase solution was inverted several times, but not shaken, to ensure thorough mixing.
Pegloticase diluted in infusion bags was stable for 4 hours at 2° C. to 8° C. (36° F. to 46° F.) and at room temperature (20° C. to 25° C., 68° F. to 77° F.); however, the diluted solution was stored under refrigeration, not frozen, protected from light, and used within 4 hours of dilution. Before administration, the diluted solution of pegloticase was allowed to reach room temperature. Pegloticase in a vial or IV infusion fluid was never subjected to artificial heating.

For `CN(Cc1cnc2nc(N)nc(N)c2n1)c1ccc(C(=O)N[C@@H](CCC(=O)O)C(=O)O)cc1` [MTX, methotrexate], the “Increased susceptibility to infection” value ([1]; RA) is listed as under 1%, the Leukopenia ([1]; RA) is listed as 28% and the Nausea and vomiting ([1]; RA) is listed as 12%. The “Increased susceptibility to infection” value ([1]; renal transplant) was 20%, the Leukopenia ([1]; renal transplant) was over 50% and the “neoplasia (lymphoma)” value ([1]; renal transplant) was 0.5%. For the same molecule, the “neoplasia (other than lymphoma)” value ([1]; renal transplant) was 3%, the “Infections And Infestations, %” value [2] was “(13.3) %” and the “Infections And Infestations, Incidence Rate” value [2] was 1.8 Events/PY of MTX. The “Infections And Infestations, Total Events” value [2] was 2, the “Blood And Lymphatic System Disorders, %” value ([2]; ITT N = 15) was “(6.7) %” and the “Chronic Sinusitis, %” value ([2]; ITT N = 15) was “(6.7) %”. The “Cough, %” value ([2]; ITT N = 15) was “(6.7) %”, the “Dental Caries, %” value ([2]; ITT N = 15) was “(6.7) %” and the “Diarrhoea, %” value ([2]; ITT N = 15) was “(6.7) %”. The “Dry Eye, %” value ([2]; ITT N = 15) was “(6.7) %”, the “Eye Disorders, %” value ([2]; ITT N = 15) was “(6.7) %” and the “Headache, %” value ([2]; ITT N = 15) was “(6.7) %”. The “Leukopenia, %” value ([2]; ITT N = 15) was “(6.7) %”, the “Nasopharyngitis, %” value ([2]; ITT N = 15) was “(6.7) %” and the “Nervous System Disorders, %” value ([2]; ITT N = 15) was “(6.7) %”. The “Neutropenia, %” value ([2]; ITT N = 15) was “(6.7) %”, the “Pruritus, %” value ([2]; ITT N = 15) was “(6.7) %” and the “Respiratory, Thoracic And Mediastinal Disorders, %” value ([2]; ITT N = 15) was “(6.7) %”. The “Skin And Subcutaneous Tissue Disorders, %” value ([2]; ITT N = 15) was “(6.7) %”, the “Abdominal Discomfort, Incidence Rate” value ([2]; ITT N = 15, PY of MTX = 1.1) was 1.8 Events/PY of MTX and the “Blood And Lymphatic System Disorders, Incidence Rate” value ([2]; ITT N = 15, PY of MTX = 1.1) was 1.8 Events/PY of MTX. For the same molecule, the “Chronic Sinusitis, Incidence Rate” value ([2]; ITT N = 15, PY of MTX = 1.1) was 0.9 Events/PY of MTX, the “Cough, Incidence Rate” value ([2]; ITT N = 15, PY of MTX = 1.1) was 0.9 Events/PY of MTX and the “Dental Caries, Incidence Rate” value ([2]; ITT N = 15, PY of MTX = 1.1) was 0.9 Events/PY of MTX. The “Diarrhoea, Incidence Rate” value ([2]; ITT N = 15, PY of MTX = 1.1) was 0.9 Events/PY of MTX, the “Dry Eye, Incidence Rate” value ([2]; ITT N = 15, PY of MTX = 1.1) was 0.9 Events/PY of MTX and the “Eye Disorders, Incidence Rate” value ([2]; ITT N = 15, PY of MTX = 1.1) was 0.9 Events/PY of MTX. For the same molecule, the “Gastrointestinal Disorders, Incidence Rate” value ([2]; ITT N = 15, PY of MTX = 1.1) was 5.5 Events/PY of MTX, the “Gout, Incidence Rate” value ([2]; ITT N = 15, PY of MTX = 1.1) was 5.5 Events/PY of MTX and the “Headache, Incidence Rate” value ([2]; ITT N = 15, PY of MTX = 1.1) was 0.9 Events/PY of MTX. For the same molecule, the “Leukopenia, Incidence Rate” value ([2]; ITT N = 15, PY of MTX = 1.1) was 0.9 Events/PY of MTX, the “Metabolism And Nutrition Disorders, Incidence Rate” value ([2]; ITT N = 15, PY of MTX = 1.1) was 5.5 Events/PY of MTX and the “Nasopharyngitis, Incidence Rate” value ([2]; ITT N = 15, PY of MTX = 1.1) was 0.9 Events/PY of MTX. For the same molecule, the “Nausea, Incidence Rate” value ([2]; ITT N = 15, PY of MTX = 1.1) was 1.8 Events/PY of MTX, the “Nervous System Disorders, Incidence Rate” value ([2]; ITT N = 15, PY of MTX = 1.1) was 0.9 Events/PY of MTX and the “Neutropenia, Incidence Rate” value ([2]; ITT N = 15, PY of MTX = 1.1) was 0.9 Events/PY of MTX. For the same molecule, the “Pruritus, Incidence Rate” value ([2]; ITT N = 15, PY of MTX = 1.1) was 0.9 Events/PY of MTX, the “Respiratory, Thoracic And Mediastinal Disorders, Incidence Rate” value ([2]; ITT N = 15, PY of MTX = 1.1) was 0.9 Events/PY of MTX and the “Skin And Subcutaneous Tissue Disorders, Incidence Rate” value ([2]; ITT N = 15, PY of MTX = 1.1) was 0.9 Events/PY of MTX. For the same molecule, the “Blood And Lymphatic System Disorders, %” value ([2]; mITT N = 14) was “(7.1) %”, the “Chronic Sinusitis, %” value ([2]; mITT N = 14) was “(7.1) %” and the “Cough, %” value ([2]; mITT N = 14) was “(7.1) %”. For the same molecule, the “Dental Caries, %” value ([2]; mITT N = 14) was “(7.1) %”, the “Diarrhoea, %” value ([2]; mITT N = 14) was “(7.1) %” and the “Dry Eye, %” value ([2]; mITT N = 14) was “(7.1) %”. For the same molecule, the “Eye Disorders, %” value ([2]; mITT N = 14) was “(7.1) %”, the “Headache, %” value ([2]; mITT N = 14) was “(7.1) %” and the “Infections And Infestations, %” value ([2]; mITT N = 14) was “(14.3) %”. The “Infections And Infestations, Total Events” value ([2]; mITT N = 14) was 2, the “Leukopenia, %” value ([2]; mITT N = 14) was “(7.1) %” and the “Nasopharyngitis, %” value ([2]; mITT N = 14) was “(7.1) %”. The “Nervous System Disorders, %” value ([2]; mITT N = 14) was “(7.1) %”, the “Neutropenia, %” value ([2]; mITT N = 14) was “(7.1) %” and the “Pruritus, %” value ([2]; mITT N = 14) was “(7.1) %”. The “Respiratory, Thoracic And Mediastinal Disorders, %” value ([2]; mITT N = 14) was “(7.1) %”, the “Skin And Subcutaneous Tissue Disorders, %” value ([2]; mITT N = 14) was “(7.1) %” and the “Abdominal Discomfort, Incidence Rate” value ([2]; mITT N = 14, PY of MTX = 1.0) was 2.0 Events/PY of MTX. The “Any TEAEs, Incidence Rate” value ([2]; mITT N = 14, PY of MTX = 1.0) was 20.0 Events/PY of MTX, the “Blood And Lymphatic System Disorders, Incidence Rate” value ([2]; mITT N = 14, PY of MTX = 1.0) was 2.0 Events/PY of MTX and the “Chronic Sinusitis, Incidence Rate” value ([2]; mITT N = 14, PY of MTX = 1.0) was 1.0 Events/PY of MTX. The “Cough, Incidence Rate” value ([2]; mITT N = 14, PY of MTX = 1.0) was 1.0 Events/PY of MTX, the “Dental Caries, Incidence Rate” value ([2]; mITT N = 14, PY of MTX = 1.0) was 1.0 Events/PY of MTX and the “Diarrhoea, Incidence Rate” value ([2]; mITT N = 14, PY of MTX = 1.0) was 1.0 Events/PY of MTX. The “Dry Eye, Incidence Rate” value ([2]; mITT N = 14, PY of MTX = 1.0) was 1.0 Events/PY of MTX, the “Eye Disorders, Incidence Rate” value ([2]; mITT N = 14, PY of MTX = 1.0) was 1.0 Events/PY of MTX and the “Gastrointestinal Disorders, Incidence Rate” value ([2]; mITT N = 14, PY of MTX = 1.0) was 6.0 Events/PY of MTX. The “Gout, Incidence Rate” value ([2]; mITT N = 14, PY of MTX = 1.0) was 6.0 Events/PY of MTX, the “Headache, Incidence Rate” value ([2]; mITT N = 14, PY of MTX = 1.0) was 1.0 Events/PY of MTX and the “Infections And Infestations, Incidence Rate” value ([2]; mITT N = 14, PY of MTX = 1.0) was 2.0 Events/PY of MTX. For the same molecule, the “Leukopenia, Incidence Rate” value ([2]; mITT N = 14, PY of MTX = 1.0) was 1.0 Events/PY of MTX, the “Metabolism And Nutrition Disorders, Incidence Rate” value ([2]; mITT N = 14, PY of MTX = 1.0) was 6.0 Events/PY of MTX and the “Nasopharyngitis, Incidence Rate” value ([2]; mITT N = 14, PY of MTX = 1.0) was 1.0 Events/PY of MTX. For the same molecule, the “Nausea, Incidence Rate” value ([2]; mITT N = 14, PY of MTX = 1.0) was 2.0 Events/PY of MTX, the “Nervous System Disorders, Incidence Rate” value ([2]; mITT N = 14, PY of MTX = 1.0) was 1.0 Events/PY of MTX and the “Neutropenia, Incidence Rate” value ([2]; mITT N = 14, PY of MTX = 1.0) was 1.0 Events/PY of MTX. The “Pruritus, Incidence Rate” value ([2]; mITT N = 14, PY of MTX = 1.0) was 1.0 Events/PY of MTX, the “Respiratory, Thoracic And Mediastinal Disorders, Incidence Rate” value ([2]; mITT N = 14, PY of MTX = 1.0) was 1.0 Events/PY of MTX and the “Skin And Subcutaneous Tissue Disorders, Incidence Rate” value ([2]; mITT N = 14, PY of MTX = 1.0) was 1.0 Events/PY of MTX.

B1: pegloticase (protein)
chain: TYKKNDEVEFVRTGYGKDMIKVLHIQRDGKYHSIKEVATTVQLTLSSKKDYLHGDNSDVIPTDTIKNTVNVLAKFKGIKSIETFAVTICEHFLSSFKHVIRAQVYVEEVPWKRFEKNGVKHVHAFIYTPTGTHFCEVEQIRNGPPVIHSGIKDLKVLKTTQSGFEGFIKDQFTTLPEVKDRCFATQVYCKWRYHQGRDVDFEATWDTVRSIVLQKFAGPYDKGEYSPSVQKTLYDIQVLTLGQVPEIEDMEISLPNIHYLNIDMSKMGLINKEEVLLPLDNPYGKITGTVKRKLSSRL
modifications: monomethoxy PEG conjugated; Krystexxa Sequence
notes: covalent conjugate of uricase produced by a genetically modified strain of Escherichia coli and monomethoxypoly (ethylene glycol)
For B1, the “patients with IRs in whom loss of response (return to SUA >6 mg/dL) preceded the first IR” value ([3]; 20/21 pegloticase-treated patients with IRs) is given as 95%, the “incidence of infusion reactions” value ([3]; pegloticase 8 mg every 2 weeks (biweekly dosing)) is given as 26% and the “incidence of infusion-related reactions” value ([3]; pegloticase 8 mg every-4-week dosing regimen) is given as 40%. The frequency of anaphylaxis ([3]; pre-marketing controlled clinical trials) was 6.5%, the “plasma urate concentration (pUAc) after dosing, mean±SD” value (plasma urate) was 1.0±0.5 mg/dL and the “stability of pegloticase diluted in infusion bags” value [4] was 4 h.
